ChEMBL document CHEMBL1130989, “Design and synthesis of bio-isosteres of thymidine triphosphate” (Bioorg Med Chem Lett, 1998)

Columns and labels:
CCRF-CEM [1] = assay: Dose required for no significant anti-HIV activity against HIV-2 in human lymphocyte CEM cells; assay type: functional, cell-based
CCRF-CEM [2] = assay: Dose required for no significant anti-HIV activity against HIV-1 in human lymphocyte CEM cells; assay type: functional, cell-based
[3] = target: Human immunodeficiency virus type 1 reverse transcriptase (Human immunodeficiency virus 1, UniProt Q72547); assay: Concentration required for no significant inhibitory activity against HIV-1 reverse transcriptase

Row | Structure (SMILES) | EC50 (CCRF-CEM [1]) [µM] | EC50 (CCRF-CEM [2]) [µM] | IC50 [3] [µM]
1 | Cc1cn(C2C=CC(CNC(=O)CC3(C)CC(O)CN3)O2)c(=O)[nH]c1=O (stereo not given) | > 200 | > 200 | > 500
2 | Cc1cn(C2C=CC(CNC(=O)CC3(C)CC(O)CN3C(=O)OC(C)(C)C)O2)c(=O)[nH]c1=O (stereo not given) | > 200 | > 200 | > 500
3 | Cc1cn(C2CC(O[Si](C)(C)C(C)(C)C)C(CNC(=O)CC3(C)CC(O[Si](c4ccccc4)(c4ccccc4)C(C)(C)C)CN3C(=O)OC(C)(C)C)O2)c(=O)[nH]c1=O (stereo not given) | > 200 | > 200 | > 500

Other lines, results leading:

Row | EC50 (CCRF-CEM [1]) [µM] | EC50 (CCRF-CEM [2]) [µM] | IC50 [3] [µM] | Structure (SMILES)
4 | > 200 | > 200 | > 500 | Cc1cn(C2C=CC(CNC(=O)CC3(C)CC(O[Si](c4ccccc4)(c4ccccc4)C(C)(C)C)CN3C(=O)OC(C)(C)C)O2)c(=O)[nH]c1=O (stereo not given)
5 | > 200 | > 200 | > 500 | Cc1cn(C2CC(O)C(CNC(=O)CC3(C)CC(O)CN3)O2)c(=O)[nH]c1=O (stereo not given)
